Source: patent US7166634B2, “Bis-indole pyrroles useful as antimicrobials agents” (Nereus Pharmaceuticals, Inc., priority 2004, dated 2007)
≈ marks a conversion by molar mass, not a printed value.

Assays:
Experiment in all cases: MIC, broth microdilution (NCCLS M7-A5)
Type in all cases: cell-based
[1] = test system: S. epidermidis - ATCC 700578; conditions: S. epidermidis - ATCC 700578; Table 3
Protocol: (§1) Minimum inhibitory concentrations (MICs) are determined according to the National Committee for Clinical Laboratory Standards (NCCLS) susceptibility test guideline M7-A5 (Ferraro, M. 2001 Methods for Dilution Antimicrobial Susceptibility Tests for Bacteria that Grow Aerobically; Approved Standard (NCCLS). National Committee for Clinical Laboratory Standards (NCCLS), Villanova) to quantify the antimicrobial activity of the compounds of the present embodiment against various pathogenic bacteria. Susceptibility testing is performed by broth microdilution in accordance with National Committee for Clinical Laboratory Standards (NCCLS) guidelines. This procedure entails combining the test compounds with a standardized number of cells, incubating at the temperature and amount of time appropriate for each particular organism, and visually scoring the concentration at which no growth was apparent in the test wells. The panel includes both drug sensitive and drug resistant isolates of both gram-positive and gram-negative bacteria, including: S. aureus (both MSSA and MRSA), S. pneumoniae (wild type and penicillin-resistant), vancomycin-sensitive E. faecalis, vancomycin-resistant E. faecium, E. coli, H. influenzae and P. aeruginosa.
(§2) Susceptibility testing was performed by broth microdilution in accordance with National Committee for Clinical Laboratory Standards (NCCLS) guidelines. Antimicrobial data for compounds of Formulae II, III, IV, VI, VII, VIII, IX, XII, XIII, XIV, XV′, XV, XVI, XVII, XVIII, XXI′, XXII, XXIII, XXIV, and XXV are shown in Tables 3, 4 and 5.

[2] = test system: S. epidermidis - ATCC 700582; conditions: S. epidermidis - ATCC 700582; Table 3
Protocol: as §1, §2

[3] = test system: E. coli - ATCC 25922; conditions: Table 3
Protocol: as §1, §2

[4] = test system: E. coli - imp; conditions: E. coli - imp; Table 3
Protocol: as §1, §2

[5] = test system: E. faecium - Van^r (VRE 700221); conditions: E. faecium - Van^r; Table 3
Protocol: as §1, §2

[6] = test system: H. influenzae - ATCC 49247; conditions: H. influenzae - ATCC 49247; Table 3
Protocol: as §1, §2

[7] = test system: H. influenzae - ATCC 49766; conditions: H. influenzae - ATCC 49766; Table 3
Protocol: as §1, §2

[8] = test system: S. aureus - MRSA (43300); conditions: S. aureus - MRSA; Table 3
Protocol: as §1, §2

[9] = test system: S. aureus - MSSA (29213); conditions: S. aureus - MSSA; Table 3
Protocol: as §1, §2

[10] = test system: S. pneumoniae - penicillin resistant (51915); conditions: S. pneumoniae - penicillin resistant; Table 3
Protocol: as §1, §2

[11] = test system: S. pneumoniae - penicillin sensitive (49619); conditions: S. pneumoniae - penicillin sensitive; Table 3
Protocol: as §1, §2

[12] = test system: E. faecalis - Van^s (VSE 29212); conditions: E. faecalis - Van^s; Table 3
Protocol: as §1, §2

What does the source list for `COC(=O)c1[nH]cc(-c2c[nH]c3ccc(Cl)cc23)c1-c1c[nH]c2ccc(Cl)cc12` [III]?
MIC [1]: 4 µg/mL (≈ 9.43 µM); MIC [2]: 4 µg/mL (≈ 9.43 µM); MIC [3]: >32 µg/mL; MIC [4]: 16 µg/mL (≈ 37.7 µM); MIC [5]: 8 µg/mL (≈ 18.9 µM); MIC [6]: 16 µg/mL (≈ 37.7 µM); MIC [7]: 12 µg/mL (≈ 28.3 µM); MIC [8]: 2 µg/mL (≈ 4.71 µM); MIC [9]: 1.8 µg/mL (≈ 4.24 µM); MIC [10]: 24 µg/mL (≈ 56.6 µM); MIC [11]: 24 µg/mL (≈ 56.6 µM); MIC [12]: 8 µg/mL (≈ 18.9 µM)

For `COC(=O)c1[nH]c(C(=O)OC)c(-c2c[nH]c3ccc(Cl)cc23)c1-c1c[nH]c2ccc(Cl)cc12` [VI], which MIC [1] is on record?
The MIC was 4 µg/mL (≈ 8.29 µM).

What about the MIC [2] of the same compound?
The MIC was 4 µg/mL (≈ 8.29 µM).

What about the MIC [3] of the same compound?
Its MIC is >32 µg/mL.

And the MIC [4]?
Its MIC is >32 µg/mL.

And the MIC [5]?
The MIC was 8 µg/mL (≈ 16.6 µM).

What about the MIC [6] of the same compound?
The MIC was 5 µg/mL (≈ 10.4 µM).

What about the MIC [7] of the same compound?
The MIC was 8 µg/mL (≈ 16.6 µM).

What about the MIC [8] of the same compound?
The MIC was 3 µg/mL (≈ 6.22 µM).

And the MIC [9]?
Its MIC is 3 µg/mL (≈ 6.22 µM).

What about the MIC [10] of the same compound?
The MIC was 20 µg/mL (≈ 41.5 µM).

And the MIC [11]?
The MIC was 24 µg/mL (≈ 49.8 µM).

And the MIC [12]?
The MIC was 8 µg/mL (≈ 16.6 µM).
